Experimental data taken from patent US9073830B2 (Hyundai Pharm Co., Ltd., priority 2011, dated 2015).

Experiments:
mouse 11β-HSD1 = biological target: T1, mouse 11β-HSD1 (Mus musculus, UniProt P50172); assay: Enzyme activity analysis on mouse 11β-HSD1 (HTRF cortisol, liver microsomes); type: biochemical; settings: second value of cell
T1 construct: 100 ug/ml human/mouse liver microsomes; from tissue; host or cells: mouse liver microsomes
Procedure, shortened: (§1)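 Cortisol generated by mouse or human liver microsome 11β-HSD1 during 2 h at 37° C., measured by HTRF competition (cryptate anti-cortisol antibody, d2-cortisol, 2 h room temperature) against a cortisol standard curve. IC50 from percent inhibition versus no-compound control.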

human 11β-HSD1 = biological target: T2, human 11β-HSD1 (Homo sapiens, UniProt P28845); assay: Enzyme activity analysis on human 11β-HSD1 (HTRF cortisol, liver microsomes); type: biochemical; settings: first value of cell
T2 construct: 100 ug/ml human/mouse liver microsomes; from tissue; host or cells: human liver microsomes
T2 sequence (P28845 whole entry): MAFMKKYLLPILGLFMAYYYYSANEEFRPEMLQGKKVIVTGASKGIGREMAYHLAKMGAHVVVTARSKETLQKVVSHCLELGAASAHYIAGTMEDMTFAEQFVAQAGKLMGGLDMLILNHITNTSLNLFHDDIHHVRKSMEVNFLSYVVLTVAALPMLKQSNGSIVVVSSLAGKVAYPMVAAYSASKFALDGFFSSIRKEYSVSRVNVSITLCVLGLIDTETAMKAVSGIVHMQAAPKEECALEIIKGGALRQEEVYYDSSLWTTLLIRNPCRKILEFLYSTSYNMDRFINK
Procedure, shortened: as §1

T1 sequence (P50172 whole entry): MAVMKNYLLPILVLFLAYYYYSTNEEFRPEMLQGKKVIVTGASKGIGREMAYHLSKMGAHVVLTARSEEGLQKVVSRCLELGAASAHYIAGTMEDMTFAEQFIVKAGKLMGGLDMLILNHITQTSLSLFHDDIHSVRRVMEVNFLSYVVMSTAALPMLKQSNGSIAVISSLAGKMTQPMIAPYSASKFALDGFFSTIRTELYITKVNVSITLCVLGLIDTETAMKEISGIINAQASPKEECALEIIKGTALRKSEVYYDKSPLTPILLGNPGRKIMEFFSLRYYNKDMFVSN

SMILES | IC50 (mouse 11β-HSD1) | IC50 (human 11β-HSD1)
Cc1ccc(S(=O)(=O)NC(C)(C)C(=O)NC2C3CC4CC(C3)CC2C4)cc1Cl (stereo not shown) [compound 62, N-(adamantane-2-yl)-2-methyl-2-(4-methyl-3-chlorophenylsulfonamido)propanamide] | 0.686 µM | 0.215 µM
CC(C)(NS(=O)(=O)c1ccccc1)C(=O)NC1C2CC3CC1CC(O)(C3)C2 (stereo not shown) [compound 70] | 0.378 µM | 0.093 µM
CC(C)(NS(=O)(=O)c1cc(C(F)(F)F)ccc1Br)C(=O)NC1C2CC3CC1CC(C(N)=O)(C3)C2 (stereo not shown) [compound 110, N-4-(2-(2-bromo-5-trifluoromethylphenylsulfonamido)-2-methylpropanamido)adamantane-1-carboxyamide] | 0.556 µM | 0.014 µM
NC(=O)C12CC3CC(C1)C(NC(=O)C1(NS(=O)(=O)c4ccccc4Br)CC1)C(C3)C2 (stereo not shown) [compound 131, N-4-(1-(2-bromophenylsulfonamido)cyclopropanecarboxyamido)adamantane-1-carboxyamide] | 0.048 µM | 0.008 µM
Cc1ccccc1S(=O)(=O)N(C)C(C)(C)C(=O)NC1C2CC3CC1CC(O)(C3)C2 (stereo not shown) [compound 207, N-(5-hydroxyadamantane-2-yl)-2-(2-methyl-N-methylphenylsulfonamido)-2-methylpropanamide] | 0.107 µM | 0.006 µM
CC(C)(NS(=O)(=O)c1ccc(F)cc1Br)C(=O)NC1C2CC3CC1CC(C(N)=O)(C3)C2 (stereo not shown) [compound 101, N-4-(2-(2-bromo-4-fluorophenylsulfonamido)-2-methylpropanamido)adamantane-1-carboxyamide] | 0.014 µM | 0.009 µM
CC(C)(NS(=O)(=O)c1ccccc1Cl)C(=O)NC1C2CC3CC(C2)CC1C3 (stereo not shown) [compound 6, N-(adamantane-2-yl)-2-methyl-2-(2-chlorophenylsulfonamido)propanamide] | 0.04 µM | 0.02 µM
CC(C)(NS(=O)(=O)c1cccc2cccnc12)C(=O)NC1C2CC3CC(C2)CC1C3 (stereo not shown) [compound 17, N-(adamantane-2-yl)-2-methyl-2-(quinoline-8-sulfonamido)propanamide] | 0.008 µM | 0.008 µM
CC(C)(NS(=O)(=O)c1ccccc1Br)C(=O)NC1C2CC3CC1CC(C(=O)NC1CC1)(C3)C2 (stereo not shown) [compound 229, 4-[2-(2-bromo-benzenesulfonylamino)-2-methyl-propionylamino]-adamantane-1-carboxylic acid cyclopropylamide] | > 2.5 µM | > 2.5 µM
CC(C)NC(=O)C12CC3CC(C1)C(NC(=O)C1(NS(=O)(=O)c4ccccc4Cl)CCC1)C(C3)C2 (stereo not shown) [compound 236, 4-({1-[(2-chloro-benzenesulfonyl)-methyl-amino]-cyclobutanecarbonyl}-amino)-adamantane-1-carboxylic acid-isopropylamide] | > 2.5 µM | > 2.5 µM
CC(C)(NS(=O)(=O)c1c(Cl)cccc1Cl)C(=O)NC1C2CC3CC(C2)CC1C3 (stereo not shown) [compound 45, N-(adamantane-2-yl)-2-methyl-2-(2,6-dichlorophenylsulfonamido)propanamide] | 0.02 µM | 0.009 µM
CC(C)(NS(=O)(=O)c1ccccc1C#N)C(=O)NC1C2CC3CC1CC(C(N)=O)(C3)C2 (stereo not shown) [compound 130, 4-[2-(2-cyano-benzenesulfonylamino)-2-methyl-propionylamino]-adamantane-1-carboxylic acid amide] | 0.405 µM | 0.078 µM
CN(C(C)(C)C(=O)NC1C2CC3CC1CC(C(N)=O)(C3)C2)S(=O)(=O)c1ccccc1C(F)(F)F (stereo not shown) [compound 193, N-4-(2-(2-trifluoromethyl-N-methylphenylsulfonamido)-2-methylpropanamido)adamantane-1-carboxyamide] | 0.012 µM | 0.007 µM
CC(C)(NS(=O)(=O)c1cccc(Cl)c1F)C(=O)NC1C2CC3CC1CC(C(N)=O)(C3)C2 (stereo not shown) [compound 102, N-4-(2-(2-fluoro-3-chlorophenylsulfonamido)-2-methylpropanamido)adamantane-1-carboxyamide] | 0.037 µM | 0.02 µM
